Laboratory results from patent publication US20150259331A1, “PROTOZOAN PARASITE GROWTH INHIBITORS” (Northeastern University, priority 2014, published 2015).
Counter-ions that a name gives are not always drawn. Like-named read-outs stand apart in the source and are kept apart here. Marks after values point to notes of the source that are not given here.

Experiments:
[1] = test system: HepG2 cells; test: HepG2 cell toxicity (MTT) assay; format: cell-based; details: MTT, 48 hour incubation, read-out: HepG2 IC50
Description: (§1) Then 2 μL of DMSO (control) or different concentrations of drugs prepared from 200× DMSO stocks were added to the cultures. […] All experiments were repeated thrice in independent studies where each dose was administered in duplicate (total n=6). HepG2 Cell Toxicity Assay. The 384 well MTT cytotoxicity assay is a modification of the MTT method described by Ferrari et al. optimized for 384-well throughput, with modifications described below.
HepG2 Cell Toxicity assay. The 384 well MTT cytotoxicity assay is a modification of the MTT method described by Ferrari et al.^1 ENREF—26_ENREF—26_ENREF—26 optimized for 384 well throughput. […] 4.25 μL of diluted test compound was then added to the 38.3 μL of media in each well providing a 10 fold final dilution of compound. […] After a 48 hour incubation period, 8 μL of a 1.5 mg/ml solution of MTT diluted in complete MEM media was added to each well. All plates were subsequently incubated in the dark for 1 hour at room temperature. After incubation, the media and drugs in each well was removed by shaking plate over sink, the plates are then left to dry in hood for 15 minutes. […] Plates are put on a 3-D rotator for 15-30 minutes. Absorbance was determined in all wells using a Tecan iControl 1.6 Infinite plate reader.

[2] = test system: T. brucei brucei Lister 427; test: Trypanosome replication assay; format: cell-based, Trypanosoma brucei brucei; details: 48 h, 48 h, values ±7%
Description: as §1, with “cultures. Cells were incubated at 37° C. for 48 h and counted with a hemocytometer.” for “cultures.”

[3] = test system: P. falciparum D6; test: P. falciparum D6 assay; format: cell-based; details: strain D6
[4] = test system: L. major amastigote; test: L. major amastigote assay; format: cell-based
[5] = test system: T. cruzi; test: T. cruzi growth inhibition; format: cell-based, Trypanosoma cruzi
[6] = test system: P. falciparum C235; test: P. falciparum C235 assay; format: cell-based; details: read-out: P. falciparum C235 (EC50)
[7] = test system: P. falciparum W2; test: P. falciparum W2 assay; format: cell-based
[8] = test system: L. major promastigote; test: L. major promastigote assay; format: cell-based
[9] = Trypanosoma brucei, concentration giving 50% inhibition of growth of T brucei brucei Lister 427 cells, read-out: Tbb EC50
[10] = Plasmodium falciparum, strain C235
[11] = Plasmodium falciparum, strain W2, read-out: P. falciparum W2 (EC50)
[12] = Trypanosoma brucei, read-out: Tbb EC50, concentration giving 50% inhibition of growth of T brucei brucei Lister 427 cells
[13] = strain W2, read-out: P. falciparum W2 (EC50)
[14] = concentration giving 50% inhibition of growth of T brucei brucei Lister 427 cells, read-out: Tbb EC50

O=S(=O)(c1ccc(-c2ccc3ncnc(Nc4ccc(OCc5cccc(F)c5F)c(Cl)c4)c3c2)cc1)N1CCOCC1 [Compound 20h, N-(3-Chloro-4-((2,3-difluorobenzyl)oxy)phenyl)-6-(4-(morpholinosulfonyl)phenyl)quinazolin-4-amine Hydrochloride]
IC50 ([1]; Homo sapiens, HepG2, 48 h): > 15000 nM
EC50 [2, 9]: 820 nM

Clc1cc(Nc2ncnc3ccc(-c4cccc(N5CCOCC5)c4)cc23)ccc1OCc1ccccc1 [Compound 23m, N-(4-(Benzyloxy)-3-chlorophenyl)-6-(3-morpholinophenyl)-quinazolin-4-amine]
IC50 ([1]; Homo sapiens, HepG2, 48 h): > 20000 nM
EC50 [2, 9]: 230 nM
EC50 ([3]; Plasmodium falciparum): 790 nM
EC50 ([4]; Leishmania major): > 15000 nM
EC50 ([5]; Trypanosoma cruzi): 1300 nM
EC50 [6, 10]: 720 nM
EC50 [7, 11]: 1700 nM
EC50 ([8]; Leishmania major): 6600 nM

O=S(=O)(c1ccc(-c2ccc3ncnc(Nc4ccc(OCc5cccc(Br)c5)c(Cl)c4)c3c2)cc1)N1CCOCC1 [Compound 20f, N-(4-((3-Bromobenzyl)oxy)-3-chlorophenyl)-6-(4-(morpholinosulfonyl)phenyl)quinazolin-4-amine Hydrochloride]
IC50 ([1]; Homo sapiens, HepG2, 48 h): > 15000 nM
EC50 [2, 9]: 680 nM
EC50 ([3]; Plasmodium falciparum): 200 nM
EC50 ([4]; Leishmania major): 470 nM
inhibition at 10 µM ([5]; Trypanosoma cruzi, read-out: T. cruzi % inh at 10 μM): 7%
EC50 [6, 10]: 410 nM
EC50 [7, 11]: 440 nM
EC50 ([8]; Leishmania major): 14000 nM

O=C(c1cccc(-c2ccc3ncnc(Nc4ccc(OCc5cccc(F)c5)c(Cl)c4)c3c2)c1)N1CCCCC1 [Compound 23k, (3-(4-((3-Chloro-4-((3-fluorobenzyl)oxy)phenyl)amino)-quinazolin-6-yl)phenyl)(piperidin-1-yl)methanone]
IC50 ([1]; Homo sapiens, HepG2, 48 h): > 6000 nM
EC50 [2, 12]: 140 nM
EC50 ([3]; Plasmodium falciparum): 520 nM
EC50 ([4]; Leishmania major): 3500 nM
EC50 ([5]; Trypanosoma cruzi): > 50000 nM
EC50 [6, 10]: 570 nM
EC50 [7, 11]: 960 nM
EC50 ([8]; Leishmania major): 3500 nM

Cl.O=S(=O)(c1ccc(-c2ccc3ncnc(Nc4ccc(OCc5ccccc5F)c(Cl)c4)c3c2)cc1)N1CCOCC1 [Compound 20i, N-(3-Chloro-4-((2-fluorobenzypoxy)phenyl)-6-(4-(morpholinosulfonyl)phenyl)quinazolin-4-amine Hydrochloride]
IC50 [1]: > 15000 nM
EC50 ([2]; concentration giving 50% inhibition of growth of T brucei brucei Lister 427 cells, Hydrochloride, read-out: Tbb EC50): 1650 nM
EC50 ([2]; concentration giving 50% inhibition of growth of T brucei brucei Lister 427 cells, listed as NEU-565, Hydrochloride, read-out: Tbb EC50): 1700 nM
EC50 [3]: 130 nM
EC50 [4]: > 15000 nM
EC50 ([6]; strain C235): 220 nM
EC50 [7, 13]: 570 nM
EC50 [8]: 710 nM

Fc1cccc(COc2ccc(Nc3ncnc4ccc(-c5cccc(N6CCSCC6)c5)cc34)cc2Cl)c1 [NEU-713]
EC50 [2, 14]: 770 nM
EC50 [3]: 440 nM
EC50 [4]: 10000 nM
T. cruzi % inh at 10 μM [5]: (55)* %
EC50 ([6]; strain C235): 780 nM
EC50 [7, 13]: 1300 nM
EC50 [8]: > 15000 nM

CN1CCN(S(=O)(=O)c2ccc(-c3ccc4ncnc(Nc5ccccc5)c4c3)cc2)CC1 [NEU-767]
EC50 [2, 14]: 1500 nM
EC50 [3]: 700 nM
EC50 [4]: > 15000 nM
EC50 [5]: > 50000 nM
EC50 ([6]; strain C235): 730 nM
EC50 [7, 13]: 1500 nM
EC50 [8]: 6100 nM

CN1CCN(S(=O)(=O)c2ccc(-c3ccc4ncnc(Nc5ccc6cnn(Cc7cccc(F)c7)c6c5)c4c3)cc2)CC1 [NEU-771]
EC50 [2, 14]: 1200 nM
EC50 [3]: 39 nM
EC50 [4]: > 15000 nM
EC50 [5]: 1500 nM
EC50 ([6]; strain C235): 40 nM
EC50 [7, 13]: 90 nM
EC50 [8]: > 15000 nM

Cc1cc(-c2ccc3ncnc(Nc4ccc(OCc5cccc(F)c5)c(Cl)c4)c3c2)cnc1N1CCOCC1 [NEU-632]
EC50 [2, 14]: 1000 nM
EC50 [3]: 260 nM
EC50 [4]: 1100 nM
T. cruzi % inh at 10 μM [5]: 49%
EC50 ([6]; strain C235): 360 nM
EC50 [7, 13]: 540 nM
EC50 [8]: 3600 nM

Fc1cccc(COc2ccc(Nc3ncnc4ccc(-c5cccc(CN6CCOCC6)c5)cc34)cc2Cl)c1 [Compound 23c]
EC50 [2, 14]: 360 nM
EC50 [3]: 190 nM
EC50 [4]: 3000 nM
EC50 [5]: 2400 nM
EC50 ([6]; strain C235): 290 nM
EC50 [7, 13]: 350 nM
EC50 [8]: 3300 nM

CN1CCN(S(=O)(=O)c2ccc(-c3ccc4ncnc(Nc5ccc(OCc6ccccc6)cc5)c4c3)cc2)CC1 [NEU-765]
EC50 [2, 14]: 630 nM
EC50 [3]: 41 nM
EC50 [4]: 1900 nM
EC50 [5]: 9900 nM
EC50 ([6]; strain C235): 36 nM
EC50 [7, 13]: 110 nM
EC50 [8]: 1500 nM

O=C(c1cccc(-c2ccc3ncnc(Nc4ccc(OCc5cccc(F)c5)c(Cl)c4)c3c2)c1)N1CCOCC1 [Compound 23e, (3-(4-((3-Chloro-4-((3-fluorobenzyl)oxy)phenyl)amino)-quinazolin-6-yl)phenyl)(morpholino)methanone]
EC50 [2, 9]: 550 nM
EC50 ([3]; Plasmodium falciparum): 760 nM
EC50 ([4]; Leishmania major): > 15000 nM
EC50 ([5]; Trypanosoma cruzi): 3500 nM
EC50 [6, 10]: 1200 nM
EC50 [7, 11]: 1100 nM
EC50 ([8]; Leishmania major): 3000 nM

CN(C)c1cccc(-c2ccc3ncnc(Nc4ccc(OCc5cccc(F)c5)c(Cl)c4)c3c2)c1 [NEU-708]
EC50 [2, 14]: 2200 nM
EC50 [3]: 460 nM
EC50 [4]: > 15000 nM
T. cruzi % inh at 10 μM [5]: (58)* %
EC50 ([6]; strain C235): 550 nM
EC50 [7, 13]: 1400 nM
EC50 [8]: > 15000 nM

O=C(c1cncc(-c2ccc3ncnc(Nc4ccc(OCc5cccc(F)c5)c(Cl)c4)c3c2)c1)N1CCOCC1 [NEU-640]
EC50 [2, 14]: 340 nM
EC50 [3]: 370 nM
EC50 [4]: > 15000 nM
T. cruzi % inh at 10 μM [5]: −2%
EC50 ([6]; strain C235): 500 nM
EC50 [7, 13]: 630 nM
EC50 [8]: > 15000 nM

CN1CCN(c2cccc(-c3ccc4ncnc(Nc5ccc(OCc6cccc(F)c6)c(Cl)c5)c4c3)c2)CC1 [NEU-714]
EC50 [2, 14]: 550 nM
EC50 [3]: 44 nM
EC50 [4]: 4200 nM
T. cruzi % inh at 10 μM [5]: (72)* %
EC50 ([6]; strain C235): 110 nM
EC50 [7, 13]: 59 nM
EC50 [8]: 1900 nM

Fc1cccc(COc2ccc(Nc3ncnc4ccc(-c5cccc(CN6CCCCC6)c5)cc34)cc2Cl)c1 [Compound 23i]
EC50 [2, 14]: 650 nM
EC50 [3]: 39 nM
EC50 [4]: 3500 nM
EC50 [5]: 1500 nM
EC50 ([6]; strain C235): 65 nM
EC50 [7, 13]: 73 nM
EC50 [8]: 2500 nM

Fc1cccc(COc2ccc(Nc3ncnc4ccc(-c5ccc(N6CCCCC6)cc5)cc34)cc2Cl)c1 [Compound 23h, N-(3-Chloro-4-((3-fluorobenzyl)oxy)phenyl)-6-(4-(piperidin-1-yl)phenyl)quinazolin-4-amine]
EC50 [2, 12]: 380 nM
EC50 ([3]; Plasmodium falciparum): 580 nM
EC50 ([4]; Leishmania major): 5000 nM
EC50 ([5]; Trypanosoma cruzi): 7200 nM
EC50 ([6]; Plasmodium falciparum): 1000 nM
EC50 ([7]; Plasmodium falciparum, W2, read-out: P. falciparum W2 (EC50)): 1200 nM
EC50 ([8]; Leishmania major): > 15000 nM

CN1CCN(S(=O)(=O)c2ccc(-c3ccc4ncnc(Nc5ccc(OCc6ccccc6)c(Cl)c5)c4c3)cc2)CC1 [NEU-764]
EC50 [2, 14]: 610 nM
EC50 [3]: 29 nM
EC50 [4]: 2200 nM
EC50 [5]: 3900 nM
EC50 ([6]; strain C235): 28 nM
EC50 [7, 13]: 51 nM
EC50 [8]: 3400 nM

CN1CCN(S(=O)(=O)c2ccc(-c3ccc4ncnc(Nc5ccc(F)cc5)c4c3)cc2)CC1 [NEU-768]
EC50 [2, 14]: 2000 nM
EC50 [3]: 360 nM
EC50 [4]: > 15000 nM
EC50 [5]: > 50000 nM
EC50 ([6]; strain C235): 380 nM
EC50 [7, 13]: 780 nM
EC50 [8]: 12000 nM

O=C(c1ccc(-c2ccc3ncnc(Nc4ccc(OCc5cccc(F)c5)c(Cl)c4)c3c2)cc1)N1CCOCC1 [Compound 23f, (4-(4-((3-Chloro-4-((3-fluorobenzyl)oxy)phenyl)amino)-quinazolin-6-yl)phenyl)(morpholino)methanone]
EC50 [2, 9]: 1210 nM
EC50 ([2]; concentration giving 50% inhibition of growth of T brucei brucei Lister 427 cells, listed as NEU-783, read-out: Tbb EC50): 1200 nM
EC50 ([3]; Plasmodium falciparum): 400 nM
EC50 ([4]; Leishmania major): 1400 nM
EC50 ([5]; Trypanosoma cruzi): 2800 nM
EC50 [6, 10]: 610 nM
EC50 [7, 11]: 860 nM
EC50 ([8]; Leishmania major): 850 nM

Fc1cccc(COc2ccc(Nc3ncnc4ccc(-c5ccccc5)cc34)cc2Cl)c1 [NEU-706]
EC50 [2, 14]: 3900 nM
EC50 [3]: 790 nM
EC50 [4]: 22000 nM
EC50 [5]: 1800 nM
EC50 ([6]; strain C235): 1200 nM
EC50 [7, 13]: 2600 nM
EC50 [8]: 4000 nM
